The subject of this assay is BDF1 mice, P388 leukemia ip, median survival T/C. Description: NCI In Vivo Anticancer Drug Screen. Data for tumor model P388 Leukemia (intraperitoneal) in B6D2F1 (BDF1) mice. To be noted: endpoint: median survival time, higher = longer survival. The method, boiled down: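 Mice carrying the transplantable tumour receive compound or vehicle. Survival is followed in each arm, and the treated measure is divided by the vehicle measure.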

[1] abbreviates: dose: 100.0 mg/kg/injection, schedule: Q01DX009 (ip), vehicle: Klucel (hydroxypropylcellulose) (HPC).
The mark [2] stands for this setting: dose: 400.0 mg/kg/injection, schedule: Q01DX009 (ip), vehicle: saline.
[3] abbreviates: dose: 50.0 mg/kg/injection, schedule: Q01DX009 (ip), vehicle: saline with Tween-80.
The mark [4] stands for this setting: dose: 100.0 mg/kg/injection, schedule: Q01DX009 (ip), vehicle: saline with Tween-80.
[5] abbreviates: dose: 200.0 mg/kg/injection, schedule: Q01DX009 (ip), vehicle: saline with Tween-80.
The mark [6] stands for this setting: dose: 400.0 mg/kg/injection, schedule: Q01DX009 (ip), vehicle: saline with Tween-80.
Where [7] appears, read: dose: 100.0 mg/kg/injection, schedule: Q04DX003 (ip), vehicle: Klucel (hydroxypropylcellulose) (HPC).
[8] abbreviates: dose: 200.0 mg/kg/injection, schedule: Q04DX003 (ip), vehicle: Klucel (hydroxypropylcellulose) (HPC).
[9] abbreviates: dose: 400.0 mg/kg/injection, schedule: Q04DX003 (ip), vehicle: Klucel (hydroxypropylcellulose) (HPC).
Where [10] appears, read: dose: 100.0 mg/kg/injection, schedule: Q04DX003 (ip), vehicle: saline.
Setting [11] is: dose: 150.0 mg/kg/injection, schedule: Q04DX003 (ip), vehicle: saline.

“And” between values parts separate entries of the source, which are not always exact repeats. Equal values may be shown once. Toxic doses and inconclusive results are not listed.

With `COc1ccc(C(=NO)c2ccc(OC)cc2)cc1`, the T/C under setting [1] is 109 % of control; the T/C (dose: 100.0 mg/kg/injection, schedule: Q01DX009 (ip), vehicle: saline) was 100 % of control and 109 % of control; the T/C (dose: 200.0 mg/kg/injection, schedule: Q01DX009 (ip), vehicle: Klucel (hydroxypropylcellulose) (HPC)) is 118 % of control; the T/C (dose: 200.0 mg/kg/injection, schedule: Q01DX009 (ip), vehicle: saline) is 105 % of control and 109 % of control; the T/C (dose: 400.0 mg/kg/injection, schedule: Q01DX009 (ip), vehicle: Klucel (hydroxypropylcellulose) (HPC)) is 118 % of control; the T/C under setting [2] was 120 % of control.
For `CCOC1OCN(c2ccc(OC)cc2)CC1(C)C` (stereo not given), the T/C is, setting by setting: under setting [3], 98 % of control and 100 % of control; under setting [4], 113 % of control and 114 % of control; under setting [5], 116 % of control and 124 % of control.
As to `CC1CCC[N-]C1.CC1CCC[N-]C1.CC1CCC[N-]C1.CC1CCC[N-]C1.[Cl][Rh][Cl]` (stereo not given), the T/C (dose: 3.0 mg/kg/injection, schedule: Q01DX009 (ip), vehicle: Klucel (hydroxypropylcellulose) (HPC)) is 162 % of control.
`N=Cc1c(O)n(-c2ccccc2)c(=O)n(-c2ccccc2)c1=O`: the T/C under setting [4] is 95 % of control, the T/C under setting [5] was 95 % of control and the T/C under setting [6] is 90 % of control.
As to `c1ccc(C2SCSCS2)cc1`, the T/C is 100 % of control under setting [7], 95 % of control under setting [8] and 95 % of control under setting [9].
Turning to `C1CNC2NCCNC2N1` (stereo not given), the T/C (dose: 66.0 mg/kg/injection, schedule: Q04DX003 (ip), vehicle: saline) was 104 % of control; the T/C under setting [10] was 100 % of control; the T/C (dose: 117.0 mg/kg/injection, schedule: Q04DX003 (ip), vehicle: saline) is 109 % of control; the T/C (dose: 132.0 mg/kg/injection, schedule: Q01DX009 (ip), vehicle: saline) is 156 % of control; the T/C under setting [11] is 100 % of control; the T/C (dose: 178.0 mg/kg/injection, schedule: Q04DX003 (ip), vehicle: saline) is 154 % of control. Besides, the T/C was 120 % of control (dose: 200.0 mg/kg/injection, schedule: Q04DX003 (ip), vehicle: saline); 122 % of control (dose: 266.0 mg/kg/injection, schedule: Q04DX003 (ip), vehicle: saline); 150 % of control (dose: 300.0 mg/kg/injection, schedule: Q01DX009 (ip), vehicle: saline); 150 % of control under setting [2]; 172 % of control (dose: 400.0 mg/kg/injection, schedule: Q04DX003 (ip), vehicle: saline).
For `c1ccc2c(c1)C1c3cccc[n+]3C2CC1n1c2ccccc2c2ccccc21` (stereo not given), the T/C is 100 % of control (dose: 6.25 mg/kg/injection, schedule: Q01DX009 (ip), vehicle: Klucel (hydroxypropylcellulose) (HPC)); 100 % of control and 108 % of control (dose: 12.5 mg/kg/injection, schedule: Q01DX009 (ip), vehicle: Klucel (hydroxypropylcellulose) (HPC)); 100 % of control (dose: 16.0 mg/kg/injection, schedule: Q01DX009 (ip), vehicle: Klucel (hydroxypropylcellulose) (HPC)); 87 % of control and 113 % of control (dose: 25.0 mg/kg/injection, schedule: Q01DX009 (ip), vehicle: Klucel (hydroxypropylcellulose) (HPC)); 91 % of control (dose: 50.0 mg/kg/injection, schedule: Q01DX009 (ip), vehicle: Klucel (hydroxypropylcellulose) (HPC)); 100 % of control under setting [1].
Regarding `CC1(C)CCCC2(C)C3CCC(C31)C2OC(=O)c1ccc([N+](=O)[O-])cc1` (stereo not given), the T/C is, setting by setting: (dose: 50.0 mg/kg/injection, schedule: Q01DX001 (ip), vehicle: saline with Tween-80) 100 % of control; (dose: 100.0 mg/kg/injection, schedule: Q01DX001 (ip), vehicle: saline with Tween-80) 100 % of control; (dose: 200.0 mg/kg/injection, schedule: Q01DX001 (ip), vehicle: saline with Tween-80) 105 % of control.
With `C[CH2][Ge]([CH2]C)[CH2]C.C[CH2][Ge]([CH2]C)[CH2]C.C[CH2][Ge]([CH2]C)[O][Ge]([CH2]C)[CH2]C`, the T/C under setting [3] is 115 % of control and 116 % of control; the T/C under setting [4] was 112 % of control.
As to `CC(C)C(C)/C=C\C(C)C1CCC2C3=CCC4CC(O)CCC4(C)C3CCC21C` (stereo not given), the T/C was 100 % of control (dose: 6.25 mg/kg/injection, schedule: Q01DX009 (ip), vehicle: saline with Tween-80); 101 % of control (dose: 12.5 mg/kg/injection, schedule: Q01DX009 (ip), vehicle: saline with Tween-80); 94 % of control (dose: 25.0 mg/kg/injection, schedule: Q01DX009 (ip), vehicle: saline with Tween-80).
As to `C[C@]12CC[C@@H]3c4ccc(OC(=O)Cc5ccc(N(CCCl)CCCl)cc5)cc4CC[C@H]3[C@@H]1CC[C@@H]2OC(=O)Cc1ccc(N(CCCl)CCCl)cc1`, the T/C by setting is: (dose: 64.0 mg/kg/injection, schedule: Q01DX009 (ip), vehicle: Klucel (hydroxypropylcellulose) (HPC)) 95 % of control and 105 % of control; under setting [4], 118 % of control; (dose: 128.0 mg/kg/injection, schedule: Q01DX009 (ip), vehicle: Klucel (hydroxypropylcellulose) (HPC)) 98 % of control and 123 % of control; (dose: 256.0 mg/kg/injection, schedule: Q01DX009 (ip), vehicle: Klucel (hydroxypropylcellulose) (HPC)) 111 % of control; (dose: 264.0 mg/kg/injection, schedule: Q04DX003 (ip), vehicle: saline with Tween-80) 108 % of control; under setting [6], 200 % of control. Also, the T/C is 112 % of control (dose: 400.0 mg/kg/injection, schedule: Q04DX003 (ip), vehicle: saline with Tween-80) and 195 % of control (dose: 512.0 mg/kg/injection, schedule: Q01DX009 (ip), vehicle: Klucel (hydroxypropylcellulose) (HPC)).
Regarding `Nc1ncnc2c1ncn2C1OC(COP(=O)(O)O)C(O)C1O` (stereo not given), the T/C by setting is: (dose: 18.8 mg/kg/injection, schedule: Q03HX016 (ip), vehicle: saline) 121 % of control; (dose: 100.0 mg/kg/injection, schedule: Q03HX016 (ip), vehicle: saline) 157 % of control; (dose: 100.0 mg/kg/injection, schedule: Q03HX024 (ip), vehicle: saline) 151 % of control; (dose: 150.0 mg/kg/injection, schedule: Q03HX016 (ip), vehicle: saline) 169 % of control; (dose: 150.0 mg/kg/injection, schedule: Q03HX024 (ip), vehicle: saline) 178 % of control.
For `C[C@]12CC[C@H]3[C@@H](CC[C@]4(O)C[C@@H](O)CC[C@]34C=O)[C@@]1(O)CC[C@@H]2c1ccc(=O)oc1`, the T/C was 95 % of control (dose: 13.7 mg/kg/injection, schedule: Q01DX010 (ip), vehicle: carboxymethylcellulose (CMC)) and 100 % of control (dose: 27.5 mg/kg/injection, schedule: Q01DX010 (ip), vehicle: carboxymethylcellulose (CMC)).
In the case of `CCCCCCCCCCOP(N)(=O)OCCCCCCCCCC`, the T/C is, setting by setting: (dose: 25.0 mg/kg/injection, schedule: Q04DX003 (ip), vehicle: saline) 115 % of control; under setting [3], 90 % of control; (dose: 50.0 mg/kg/injection, schedule: Q04DX003 (ip), vehicle: saline) 110 % of control; under setting [4], 86 % of control; (dose: 100.0 mg/kg/injection, schedule: Q04DX003 (ip), vehicle: saline with Tween-80) 95 % of control; under setting [10], 110 % of control. Moreover, the T/C by setting is: under setting [11], 110 % of control; (dose: 200.0 mg/kg/injection, schedule: Q04DX003 (ip), vehicle: saline with Tween-80) 95 % of control; (dose: 225.0 mg/kg/injection, schedule: Q04DX003 (ip), vehicle: saline) 105 % of control.
Regarding `Cc1ccc2c(c1)C(=O)CCS2`, the T/C is 100 % of control under setting [7], 100 % of control under setting [8] and 100 % of control under setting [9].
Regarding `Cc1cc2nc3c(=O)[nH]c(=O)nc-3n(CCOC(=O)CCC(=O)O)c2cc1C`, the T/C was 100 % of control (dose: 50.0 mg/kg/injection, schedule: Q01DX009 (ip), vehicle: saline sonified); 100 % of control (dose: 100.0 mg/kg/injection, schedule: Q01DX009 (ip), vehicle: saline sonified); 118 % of control (dose: 200.0 mg/kg/injection, schedule: Q01DX009 (ip), vehicle: saline sonified).
Take `O=C(NC(=S)N1CC=CCC1)c1ccccc1`: the T/C was 87 % of control under setting [3], 111 % of control under setting [4], 108 % of control under setting [5] and 101 % of control under setting [6].

Values taken from PubChem BioAssay AID328 (DTP/NCI, 2004).
